{"source": "patent US11110303B2", "about": "“Hapten-enhanced chemoimmunotherapy by ultra-minimum incision personalized intratumoral chemoimmunotherapy” (priority 2014, dated 2021)", "note": "Where two headings read alike, the source gives them in different places."}
{"smiles": "Nc1ccn([C@@H]2O[C@H](CO)[C@@H](O)[C@@H]2O)c(=O)n1", "note": "[Ara-C alone, Cytosine Arabinoside]", "values": [{"measurement": "drug retention in tumor", "setting": "12 hours after intratumoral injection", "value": 16, "unit": "%"}, {"measurement": "retention rate of Ara-C in tumor", "setting": "24 hours after intratumoral injection", "value": 0, "unit": "%"}, {"measurement": "retention rate of Ara-C in tumor", "setting": "fifteen minutes after intratumoral injection", "value": 100, "unit": "%"}, {"measurement": "retention rate of Ara-C in tumor", "setting": "four hours after intratumoral injection", "value": 16, "unit": "%"}]}
